Where two headings read alike, the source gives them in different places. One block for each compound: values may come before it.
Experiments:
Experiment in all cases: biochemical
Design in all cases: DiscoveRx KINOMEscan active site-directed competition binding; percent of control kinase bound to immobilised ligand
CDK3 = CDK3 (Homo sapiens, UniProt Q00526)
DYRK1A = DYRK1A (Homo sapiens, UniProt Q13627)
DYRK2 = molecular target: T1, DYRK2 (Homo sapiens, UniProt Q92630)
T1 sequence (Q92630 1-601): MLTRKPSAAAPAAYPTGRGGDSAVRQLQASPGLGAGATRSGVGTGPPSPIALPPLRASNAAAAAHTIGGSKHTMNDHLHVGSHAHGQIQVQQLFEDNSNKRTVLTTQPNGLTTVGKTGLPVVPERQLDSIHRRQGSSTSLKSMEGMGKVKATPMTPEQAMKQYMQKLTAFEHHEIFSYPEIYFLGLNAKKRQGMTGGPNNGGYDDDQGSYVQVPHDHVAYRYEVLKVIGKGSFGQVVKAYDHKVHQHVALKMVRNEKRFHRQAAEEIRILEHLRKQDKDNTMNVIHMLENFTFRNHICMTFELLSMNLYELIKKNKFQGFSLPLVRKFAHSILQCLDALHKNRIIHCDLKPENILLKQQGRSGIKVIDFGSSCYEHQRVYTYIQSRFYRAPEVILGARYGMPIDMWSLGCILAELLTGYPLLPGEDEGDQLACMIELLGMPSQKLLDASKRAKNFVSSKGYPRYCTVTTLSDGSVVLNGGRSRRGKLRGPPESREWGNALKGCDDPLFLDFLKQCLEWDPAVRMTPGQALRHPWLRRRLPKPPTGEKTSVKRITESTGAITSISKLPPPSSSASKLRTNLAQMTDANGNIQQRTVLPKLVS

GRK3 = molecular target: T2, GRK3 (Homo sapiens, UniProt P35626)
T2 sequence (P35626 1-688): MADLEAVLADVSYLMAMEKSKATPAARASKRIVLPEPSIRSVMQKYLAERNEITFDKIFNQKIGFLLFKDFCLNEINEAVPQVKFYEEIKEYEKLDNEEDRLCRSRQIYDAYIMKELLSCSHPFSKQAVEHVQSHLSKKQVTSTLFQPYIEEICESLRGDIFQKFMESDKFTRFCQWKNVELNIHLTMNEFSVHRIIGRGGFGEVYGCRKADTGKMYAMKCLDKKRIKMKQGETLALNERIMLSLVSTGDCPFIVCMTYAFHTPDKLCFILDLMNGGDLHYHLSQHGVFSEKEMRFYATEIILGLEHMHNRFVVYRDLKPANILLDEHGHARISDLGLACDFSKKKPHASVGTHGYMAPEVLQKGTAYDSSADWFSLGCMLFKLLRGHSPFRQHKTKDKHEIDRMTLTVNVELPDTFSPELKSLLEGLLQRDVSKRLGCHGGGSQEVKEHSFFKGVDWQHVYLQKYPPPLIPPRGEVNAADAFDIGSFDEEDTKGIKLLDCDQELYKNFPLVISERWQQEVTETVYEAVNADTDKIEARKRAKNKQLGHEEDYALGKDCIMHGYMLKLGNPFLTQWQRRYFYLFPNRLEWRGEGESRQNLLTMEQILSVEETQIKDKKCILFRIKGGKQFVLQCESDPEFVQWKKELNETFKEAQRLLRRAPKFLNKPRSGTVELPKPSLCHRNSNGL

HPK1 = molecular target: T3, HPK1 (Homo sapiens, UniProt Q92918)
T3 construct: gene MAP4K1

LOK = molecular target: T4, LOK (Homo sapiens, UniProt O94804)
T4 construct: gene STK10

MET(Y1235D) = MET(Y1235D) (Homo sapiens, UniProt P08581, Y1235D)
NEK4 = NEK4 (Homo sapiens, UniProt P51957)
PIK3CA(I800L) = PIK3CA(I800L) (Homo sapiens, UniProt P42336, I800L)
[1] = molecular target: T5, RSK4(Kin.Dom.1-N-terminal) (Homo sapiens, UniProt Q9UK32)
T5 construct: gene RPS6KA6; Kin.Dom.1-N-terminal

YSK1 = molecular target: T6, YSK1 (Homo sapiens, UniProt O00506)
T6 construct: gene STK25

[2] = read-out: Olaparib / %Ctrl @ 10000nM
[3] = read-out: Talazoparib (BMN 673) / %Ctrl @ 10000nM
[4] = read-out: Rucaparib / %Ctrl @ 10000nM, binding competition, % of control
[5] = read-out: Niraparib (MK-4827) / %Ctrl @ 10000nM

Sequence of CDK3 (Q00526 whole entry): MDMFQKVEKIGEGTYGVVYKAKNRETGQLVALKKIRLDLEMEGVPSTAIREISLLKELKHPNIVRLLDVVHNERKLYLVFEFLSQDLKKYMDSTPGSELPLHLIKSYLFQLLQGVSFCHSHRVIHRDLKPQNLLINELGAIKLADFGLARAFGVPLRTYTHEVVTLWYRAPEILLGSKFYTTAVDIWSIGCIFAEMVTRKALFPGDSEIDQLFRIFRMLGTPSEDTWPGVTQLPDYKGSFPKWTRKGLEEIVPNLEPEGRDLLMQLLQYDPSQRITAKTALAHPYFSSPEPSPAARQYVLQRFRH
T3 sequence (Q92918 whole entry): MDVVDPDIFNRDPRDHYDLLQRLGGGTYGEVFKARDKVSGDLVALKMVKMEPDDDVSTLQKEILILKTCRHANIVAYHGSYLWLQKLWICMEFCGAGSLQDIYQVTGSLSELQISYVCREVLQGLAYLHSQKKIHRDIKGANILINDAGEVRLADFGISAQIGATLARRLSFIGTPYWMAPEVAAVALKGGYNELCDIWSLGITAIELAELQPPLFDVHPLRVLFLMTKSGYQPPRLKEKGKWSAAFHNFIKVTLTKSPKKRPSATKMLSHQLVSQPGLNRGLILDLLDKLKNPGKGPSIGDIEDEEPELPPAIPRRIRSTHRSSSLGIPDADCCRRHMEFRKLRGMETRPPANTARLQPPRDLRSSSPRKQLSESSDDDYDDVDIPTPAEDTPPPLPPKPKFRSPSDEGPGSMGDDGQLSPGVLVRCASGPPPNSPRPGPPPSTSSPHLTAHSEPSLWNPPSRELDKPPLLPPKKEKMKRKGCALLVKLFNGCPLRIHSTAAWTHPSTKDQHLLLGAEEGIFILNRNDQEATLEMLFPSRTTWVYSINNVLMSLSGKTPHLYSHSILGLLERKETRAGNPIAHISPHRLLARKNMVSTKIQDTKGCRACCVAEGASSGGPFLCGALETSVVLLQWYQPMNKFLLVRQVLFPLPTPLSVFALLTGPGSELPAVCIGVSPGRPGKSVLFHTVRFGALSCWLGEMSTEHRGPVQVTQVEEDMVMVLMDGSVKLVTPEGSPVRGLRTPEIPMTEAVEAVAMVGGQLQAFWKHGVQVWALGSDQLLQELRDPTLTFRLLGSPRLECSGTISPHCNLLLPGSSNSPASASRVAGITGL
T6 sequence (O00506 whole entry): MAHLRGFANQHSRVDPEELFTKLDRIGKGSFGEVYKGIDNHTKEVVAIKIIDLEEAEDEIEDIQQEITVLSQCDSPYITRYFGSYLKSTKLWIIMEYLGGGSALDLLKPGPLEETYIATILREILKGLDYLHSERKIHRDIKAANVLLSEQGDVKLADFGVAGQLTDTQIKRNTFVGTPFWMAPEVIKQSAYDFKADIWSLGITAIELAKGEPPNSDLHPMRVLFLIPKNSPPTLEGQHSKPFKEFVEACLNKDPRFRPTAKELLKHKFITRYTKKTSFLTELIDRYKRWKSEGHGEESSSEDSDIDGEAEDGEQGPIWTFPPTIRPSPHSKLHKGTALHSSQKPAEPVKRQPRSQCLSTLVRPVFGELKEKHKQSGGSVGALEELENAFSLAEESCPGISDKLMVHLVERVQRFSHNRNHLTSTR
Sequence of PIK3CA(I800L) (P42336 whole entry I800L): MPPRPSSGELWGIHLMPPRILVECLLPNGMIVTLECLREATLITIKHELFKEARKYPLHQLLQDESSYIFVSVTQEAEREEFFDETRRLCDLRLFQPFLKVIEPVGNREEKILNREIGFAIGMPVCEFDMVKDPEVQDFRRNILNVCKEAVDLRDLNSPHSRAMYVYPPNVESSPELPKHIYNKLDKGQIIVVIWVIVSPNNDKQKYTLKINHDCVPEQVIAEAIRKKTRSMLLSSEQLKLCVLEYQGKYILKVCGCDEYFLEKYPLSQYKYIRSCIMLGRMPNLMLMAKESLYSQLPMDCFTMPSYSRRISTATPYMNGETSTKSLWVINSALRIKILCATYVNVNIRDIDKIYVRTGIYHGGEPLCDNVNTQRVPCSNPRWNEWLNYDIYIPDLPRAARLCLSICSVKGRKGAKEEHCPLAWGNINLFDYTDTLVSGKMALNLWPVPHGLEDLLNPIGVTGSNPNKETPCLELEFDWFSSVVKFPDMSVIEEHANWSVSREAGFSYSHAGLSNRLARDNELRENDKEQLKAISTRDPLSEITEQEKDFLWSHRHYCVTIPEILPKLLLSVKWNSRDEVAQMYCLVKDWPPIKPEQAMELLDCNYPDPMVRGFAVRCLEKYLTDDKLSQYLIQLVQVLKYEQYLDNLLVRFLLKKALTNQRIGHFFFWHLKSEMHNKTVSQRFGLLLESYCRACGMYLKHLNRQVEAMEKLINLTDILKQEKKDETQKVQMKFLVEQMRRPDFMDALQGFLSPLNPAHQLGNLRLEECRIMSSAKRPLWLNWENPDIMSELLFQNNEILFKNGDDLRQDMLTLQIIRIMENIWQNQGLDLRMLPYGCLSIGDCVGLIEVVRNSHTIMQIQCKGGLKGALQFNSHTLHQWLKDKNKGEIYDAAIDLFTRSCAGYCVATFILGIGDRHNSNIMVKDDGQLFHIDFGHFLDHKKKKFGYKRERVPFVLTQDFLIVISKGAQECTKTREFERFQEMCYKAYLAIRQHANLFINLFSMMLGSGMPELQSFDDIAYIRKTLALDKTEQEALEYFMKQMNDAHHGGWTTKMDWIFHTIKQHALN
T4 sequence (O94804 whole entry): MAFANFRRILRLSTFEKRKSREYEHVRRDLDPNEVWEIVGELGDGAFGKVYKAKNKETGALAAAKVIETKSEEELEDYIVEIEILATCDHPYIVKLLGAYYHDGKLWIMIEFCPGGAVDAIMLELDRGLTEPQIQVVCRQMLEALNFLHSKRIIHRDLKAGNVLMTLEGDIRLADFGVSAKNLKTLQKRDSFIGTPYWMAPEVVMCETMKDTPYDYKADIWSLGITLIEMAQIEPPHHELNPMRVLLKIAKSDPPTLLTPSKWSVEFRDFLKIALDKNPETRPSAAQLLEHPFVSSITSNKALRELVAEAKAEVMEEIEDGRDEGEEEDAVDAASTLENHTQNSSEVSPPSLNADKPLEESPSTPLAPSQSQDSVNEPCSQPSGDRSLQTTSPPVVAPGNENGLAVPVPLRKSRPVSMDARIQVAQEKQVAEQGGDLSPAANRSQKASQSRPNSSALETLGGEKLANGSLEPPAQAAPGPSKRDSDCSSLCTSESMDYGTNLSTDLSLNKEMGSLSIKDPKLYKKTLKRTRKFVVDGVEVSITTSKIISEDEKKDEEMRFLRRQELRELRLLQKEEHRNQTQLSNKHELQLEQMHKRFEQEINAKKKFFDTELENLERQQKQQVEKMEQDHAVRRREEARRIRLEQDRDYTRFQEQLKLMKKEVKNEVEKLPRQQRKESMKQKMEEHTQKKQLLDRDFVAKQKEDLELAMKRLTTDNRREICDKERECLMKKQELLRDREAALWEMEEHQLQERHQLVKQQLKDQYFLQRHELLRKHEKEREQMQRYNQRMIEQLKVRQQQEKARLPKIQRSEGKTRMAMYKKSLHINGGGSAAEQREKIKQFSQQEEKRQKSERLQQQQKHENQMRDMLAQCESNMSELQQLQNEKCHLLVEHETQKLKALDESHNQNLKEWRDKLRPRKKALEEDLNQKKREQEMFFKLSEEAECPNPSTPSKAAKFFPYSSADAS
Sequence of NEK4 (P51957 whole entry): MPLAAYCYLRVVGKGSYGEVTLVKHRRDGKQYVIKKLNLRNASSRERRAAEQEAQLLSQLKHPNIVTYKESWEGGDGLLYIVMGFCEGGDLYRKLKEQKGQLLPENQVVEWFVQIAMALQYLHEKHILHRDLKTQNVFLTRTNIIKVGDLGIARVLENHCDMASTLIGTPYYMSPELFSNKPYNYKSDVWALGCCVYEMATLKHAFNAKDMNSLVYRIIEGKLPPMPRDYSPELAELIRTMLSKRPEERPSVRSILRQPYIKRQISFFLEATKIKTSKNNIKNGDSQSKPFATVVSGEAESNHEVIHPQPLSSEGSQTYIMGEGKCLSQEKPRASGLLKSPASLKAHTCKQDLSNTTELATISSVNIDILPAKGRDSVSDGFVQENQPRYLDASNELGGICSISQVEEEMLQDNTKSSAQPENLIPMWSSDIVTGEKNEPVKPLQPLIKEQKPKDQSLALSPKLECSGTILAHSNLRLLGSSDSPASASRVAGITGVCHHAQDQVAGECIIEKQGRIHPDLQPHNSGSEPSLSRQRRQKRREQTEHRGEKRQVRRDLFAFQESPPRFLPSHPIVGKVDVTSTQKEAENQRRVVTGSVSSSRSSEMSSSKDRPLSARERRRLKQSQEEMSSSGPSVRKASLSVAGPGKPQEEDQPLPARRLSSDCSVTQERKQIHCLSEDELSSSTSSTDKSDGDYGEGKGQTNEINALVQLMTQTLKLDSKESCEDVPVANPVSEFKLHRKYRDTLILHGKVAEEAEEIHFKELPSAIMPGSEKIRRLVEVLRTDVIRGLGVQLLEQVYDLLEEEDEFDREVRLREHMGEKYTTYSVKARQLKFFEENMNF

percent of control binding at 10 µM (CDK3; [2]): 100%
percent of control binding at 10 µM (DYRK1A; [2]): 95%
percent of control binding at 10 µM (DYRK2; [2]): 99%
percent of control binding at 10 µM (GRK3; [2]): 82%
percent of control binding at 10 µM (HPK1; [2]): 94%
percent of control binding at 10 µM (LOK; [2]): 96%
percent of control binding at 10 µM (MET(Y1235D); [2]): 82%
percent of control binding at 10 µM (NEK4; [2]): 80%
percent of control binding at 10 µM (PIK3CA(I800L); [2]): 80%
percent of control binding at 10 µM [1, 2]: 76%
percent of control binding at 10 µM (YSK1; [2]): 97%
SMILES: O=C(c1cc(Cc2n[nH]c(=O)c3ccccc23)ccc1F)N1CCN(C(=O)C2CC2)CC1 [Olaparib]

percent of control binding at 10 µM (CDK3; [3]): 100%
percent of control binding at 10 µM (DYRK1A; [3]): 94%
percent of control binding at 10 µM (DYRK2; [3]): 86%
percent of control binding at 10 µM (GRK3; [3]): 81%
percent of control binding at 10 µM (HPK1; [3]): 85%
percent of control binding at 10 µM (LOK; [3]): 100%
percent of control binding at 10 µM (MET(Y1235D); [3]): 96%
percent of control binding at 10 µM (NEK4; [3]): 100%
percent of control binding at 10 µM (PIK3CA(I800L); [3]): 71%
percent of control binding at 10 µM [1, 3]: 99%
percent of control binding at 10 µM (YSK1; [3]): 80%
SMILES: Cn1ncnc1[C@H]1c2n[nH]c(=O)c3cc(F)cc(c23)N[C@@H]1c1ccc(F)cc1 [Talazoparib]

percent of control binding at 10 µM (CDK3; [4]): 94%
percent of control binding at 10 µM (DYRK1A; [4]): 0.4%
percent of control binding at 10 µM (DYRK2; [4]): 38%
percent of control binding at 10 µM (GRK3; [4]): 90%
percent of control binding at 10 µM (HPK1; [4]): 96%
percent of control binding at 10 µM (LOK; [4]): 100%
percent of control binding at 10 µM (MET(Y1235D); [4]): 92%
percent of control binding at 10 µM (NEK4; [4]): 82%
percent of control binding at 10 µM (PIK3CA(I800L); [4]): 66%
percent of control binding at 10 µM [1, 4]: 63%
percent of control binding at 10 µM (YSK1; [4]): 87%
SMILES: CNCc1ccc(-c2[nH]c3cc(F)cc4c3c2CCNC4=O)cc1 [Rucaparib]

SMILES: NC(=O)c1cccc2cn(-c3ccc([C@@H]4CCCNC4)cc3)nc12 [Niraparib]
percent of control binding at 10 µM (CDK3; [5]): 95%
percent of control binding at 10 µM (DYRK1A; [5]): 0.2%
percent of control binding at 10 µM (DYRK2; [5]): 54%
percent of control binding at 10 µM (GRK3; [5]): 95%
percent of control binding at 10 µM (HPK1; [5]): 100%
percent of control binding at 10 µM (LOK; [5]): 86%
percent of control binding at 10 µM (MET(Y1235D); [5]): 75%
percent of control binding at 10 µM (NEK4; [5]): 82%
percent of control binding at 10 µM (PIK3CA(I800L); [5]): 38%
percent of control binding at 10 µM [1, 5]: 100%
percent of control binding at 10 µM (YSK1; [5]): 99%

— publication PMC7026418, “The kinase polypharmacology landscape of clinical PARP inhibitors” (Scientific Reports, 2020)
